Assay results: patent US20100234390A1, “NOVEL COMPOUND AND THEIR USE” (priority 2007, published 2010)

Key:
Assay in all cases: Agar dilution MIC
Details in all cases: 35° C., 16-20 hours
[1] = tested on: E. faecium ATCC 700221; assay type: cell-based, Enterococcus faecium
Procedure: (§1) Briefly, the compounds of invention were weighed, dissolved in dimethyl sulfoxide, serially two fold diluted in the same solvent and then incorporated into molten Mueller Hinton Agar (MHA) in a petridish just before solidification, with each petridish containing a different concentration of a compound.
(§2) The bacterial inoculum was prepared by picking 3 to 5 well isolated bacterial colonies with the same morphological appearance from an 18-24 hours old culture with an inoculating loop, transferring the growth to a tube containing 3 mL of normal saline and adjusting the turbidity of the saline suspension to 0.5 Mc Farland Turbidity Standard equivalent to a bacterial population of 1.5×10^8 colony forming units (CFU) per mL of suspension. The suspension was diluted 1:10 in saline (i.e. 0.5 mL suspension 4.5 mL saline) to get a bacterial population of 1.5×10^7 CFU/mL as inoculum.
(§3) The inoculated petridishes were incubated at 35° C. in an ambient atmosphere for 16-20 hours.

[2] = tested on: E. faecium MRO 04198; assay type: cell-based, Enterococcus faecium
Procedure: as §1, §2, §3

[3] = tested on: E. faecium MRO 04038; assay type: cell-based, Enterococcus faecium
Procedure: as §1, §2, §3

[4] = tested on: E. faecium MRO 04037; assay type: cell-based, Enterococcus faecium
Procedure: as §1, §2, §3

[5] = tested on: M. catarrhalis ATCC 43628; assay type: cell-based, Moraxella catarrhalis
Procedure: as §1, §2, §3

[6] = tested on: M. catarrhalis ATCC 43617; assay type: cell-based, Moraxella catarrhalis
Procedure: as §1, §2, §3

[7] = tested on: M. catarrhalis ATCC 43627; assay type: cell-based, Moraxella catarrhalis
Procedure: as §1, §2, §3

[8] = tested on: S. epidermidis MRO 02095; assay type: cell-based
Procedure: as §1, §2, §3

[9] = tested on: S. saprophyticus MRO 02003; assay type: cell-based
Procedure: as §1, §2, §3

[10] = tested on: S. epidermidis MRO 002046; assay type: cell-based
Procedure: as §1, §2, §3

[11] = tested on: S. haemolyticus MRO 02064; assay type: cell-based
Procedure: as §1, §2, §3

[12] = tested on: S. epidermidis MRO 02002; assay type: cell-based
Procedure: as §1, §2, §3

[13] = tested on: S. epidermidis MRO 02045; assay type: cell-based
Procedure: as §1, §2, §3

[14] = tested on: E. faecalis MRO 04205; assay type: cell-based, Enterococcus faecalis
Procedure: as §1, §2, §3

[15] = tested on: E. faecalis MRO 04035; assay type: cell-based, Enterococcus faecalis
Procedure: as §1, §2, §3

[16] = tested on: E. faecalis ATCC 51299; assay type: cell-based, Enterococcus faecalis
Procedure: as §1, §2, §3

[17] = tested on: E. faecalis ATCC 29212; assay type: cell-based, Enterococcus faecalis
Procedure: as §1, §2, §3

[18] = tested on: E. faecalis MRO 04050; assay type: cell-based, Enterococcus faecalis
Procedure: as §1, §2, §3

[19] = tested on: S. aureus MRO 00059; assay type: cell-based, Staphylococcus aureus
Procedure: as §1, §2, §3

[20] = tested on: S. aureus ATCC 29213; assay type: cell-based, Staphylococcus aureus
Procedure: as §1, §2, §3

[21] = tested on: S. aureus MRO 0001; assay type: cell-based, Staphylococcus aureus
Procedure: as §1, §2, §3

[22] = tested on: S. aureus MRO 002053; assay type: cell-based, Staphylococcus aureus
Procedure: as §1, §2, §3

[23] = tested on: S. aureus ATCC 43300; assay type: cell-based, Staphylococcus aureus
Procedure: as §1, §2, §3

[24] = tested on: S. aureus MRO 0003; assay type: cell-based, Staphylococcus aureus
Procedure: as §1, §2, §3

[25] = tested on: S. aureus MRO 00048; assay type: cell-based, Staphylococcus aureus
Procedure: as §1, §2, §3

[26] = tested on: S. aureus MRO 00030; assay type: cell-based, Staphylococcus aureus
Procedure: as §1, §2, §3

[27] = tested on: S. aureus MRO 00013; assay type: cell-based, Staphylococcus aureus
Procedure: as §1, §2, §3

[28] = tested on: S. aureus MRO 00055; assay type: cell-based, Staphylococcus aureus
Procedure: as §1, §2, §3

SMILES	Antimicrobial Screening (MIC) [1]	Antimicrobial Screening (MIC) [2]	Antimicrobial Screening (MIC) [3]	Antimicrobial Screening (MIC) [4]	Antimicrobial Screening (MIC) [5]	Antimicrobial Screening (MIC) [6]	Antimicrobial Screening (MIC) [7]	Antimicrobial Screening (MIC) [8]	Antimicrobial Screening (MIC) [9]	Antimicrobial Screening (MIC) [10]	Antimicrobial Screening (MIC) [11]	Antimicrobial Screening (MIC) [12]	Antimicrobial Screening (MIC) [13]	Antimicrobial Screening (MIC) [14]	Antimicrobial Screening (MIC) [15]	Antimicrobial Screening (MIC) [16]	Antimicrobial Screening (MIC) [17]	Antimicrobial Screening (MIC) [18]	Antimicrobial Screening (MIC) [19]	Antimicrobial Screening (MIC) [20]	further results
COC(=S)NC[C@H]1CN(c2ccc(N3CCN(C(=O)c4ccno4)CC3)c(F)c2)C(=O)O1 [Example 44, (S)—O-M ethyl(3-(3-fluoro-4-(4-(isoxazole-5-carbonyl)piperazin-1-yl)phenyl)-2-oxooxazolidin-5-yl)methylcarbamothioate]	0.25 µg/mL	0.25 µg/mL	0.25 µg/mL	0.25 µg/mL	1 µg/mL	1 µg/mL	2 µg/mL	0.25 µg/mL	0.5 µg/mL	0.25 µg/mL	0.25 µg/mL	0.5 µg/mL	0.5 µg/mL	0.25 µg/mL	0.25 µg/mL	0.25 µg/mL	0.25 µg/mL	0.5 µg/mL	0.5 µg/mL	0.5 µg/mL	Antimicrobial Screening (MIC) [21]: 0.5 µg/mL; Antimicrobial Screening (MIC) [22]: 0.5 µg/mL; Antimicrobial Screening (MIC) [23]: 0.5 µg/mL; Antimicrobial Screening (MIC) [24]: 0.5 µg/mL; Antimicrobial Screening (MIC) [25]: 0.25 µg/mL; Antimicrobial Screening (MIC) [26]: 0.5 µg/mL; Antimicrobial Screening (MIC) [27]: 0.5 µg/mL; Antimicrobial Screening (MIC) [28]: 0.5 µg/mL
COC(=S)NC[C@H]1CN(c2ccc(N3CCN(C(=O)c4cccnc4)CC3)c(F)c2)C(=O)O1 [Example 2, (S)—O-Methyl(3-(3-fluoro-4-(4-nicotinoylpiperazin-1-yl)phenyl)-2-oxooxazolidin-5-yl)methylcarbamothioate]	0.5 µg/mL	0.5 µg/mL	0.5 µg/mL	0.5 µg/mL	4 µg/mL	1 µg/mL	4 µg/mL	1 µg/mL	1 µg/mL	1 µg/mL	1 µg/mL	1 µg/mL	1 µg/mL	0.5 µg/mL	0.5 µg/mL	0.5 µg/mL	1 µg/mL	1 µg/mL	1 µg/mL	1 µg/mL	Antimicrobial Screening (MIC) [21]: 0.5 µg/mL; Antimicrobial Screening (MIC) [22]: 1 µg/mL; Antimicrobial Screening (MIC) [23]: 1 µg/mL; Antimicrobial Screening (MIC) [24]: 1 µg/mL; Antimicrobial Screening (MIC) [25]: 0.5 µg/mL; Antimicrobial Screening (MIC) [26]: 1 µg/mL; Antimicrobial Screening (MIC) [27]: 1 µg/mL; Antimicrobial Screening (MIC) [28]: 1 µg/mL
